Source: the supplement of paper PMC10307832

How the values were obtained:
Assay in all cases: relative viability (nuclei count vs DMSO), 5 days (fraction); higher = more cells survive
Vismodegib + Navitoclax = compound: CS(=O)(=O)c1ccc(C(=O)Nc2ccc(Cl)c(-c3ccccn3)c2)c(Cl)c1 [Vismodegib] + CC1(C)CCC(c2ccc(Cl)cc2)=C(CN2CCN(c3ccc(C(=O)NS(=O)(=O)c4ccc(N[C@H](CCN5CCOCC5)CSc5ccccc5)c(S(=O)(=O)C(F)(F)F)c4)cc3)CC2)C1 [Navitoclax] (partner 0.5 µM)
Method in brief: (§1)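 One day after seeding in 1536-well plates, lung cancer cell lines were dosed by pin tool. Dosing was either single-drug or a fixed anchor-drug dose plus five library-drug doses (not always all listed) in √10 steps. After 5 days, nuclei were stained in one fix-and-stain step and counted on 4× images, and relative viability is the nuclei count of treated wells over that of vehicle wells, given as the median of duplicate plates.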

[1] = compound: N#CC[C@H](C1CCCC1)n1cc(-c2ncnc3[nH]ccc23)cn1 [Ruxolitinib] + CC(=O)c1c(C)c2cnc(Nc3ccc(N4CCNCC4)cn3)nc2n(C2CCCC2)c1=O [Palbociclib] (partner 0.5 µM)
Method in brief: as §1

Ruxolitinib + Lapatinib = compound: N#CC[C@H](C1CCCC1)n1cc(-c2ncnc3[nH]ccc23)cn1 [Ruxolitinib] + CS(=O)(=O)CCNCc1ccc(-c2ccc3ncnc(Nc4ccc(OCc5cccc(F)c5)c(Cl)c4)c3c2)o1 [Lapatinib] (partner 2 µM)
Method in brief: as §1

Ruxolitinib + Luminespib = compound: N#CC[C@H](C1CCCC1)n1cc(-c2ncnc3[nH]ccc23)cn1 [Ruxolitinib] + CCNC(=O)c1noc(-c2cc(C(C)C)c(O)cc2O)c1-c1ccc(CN2CCOCC2)cc1 [Luminespib] (partner 0.01 µM)
Method in brief: as §1

Cell Line	relative viability (Vismodegib + Navitoclax; first compound 0.08 µM)	relative viability (Vismodegib + Navitoclax; first compound 0.253 µM)	relative viability (Vismodegib + Navitoclax; first compound 0.8 µM)	relative viability (Vismodegib + Navitoclax; first compound 2.53 µM)	relative viability (Vismodegib + Navitoclax; first compound 8 µM)	relative viability ([1]; first compound 0.08 µM)	relative viability ([1]; first compound 0.253 µM)	relative viability ([1]; first compound 0.8 µM)	relative viability ([1]; first compound 2.53 µM)	relative viability ([1]; first compound 8 µM)	relative viability (Ruxolitinib + Lapatinib; first compound 0.08 µM)	relative viability (Ruxolitinib + Lapatinib; first compound 0.253 µM)	relative viability (Ruxolitinib + Lapatinib; first compound 0.8 µM)	relative viability (Ruxolitinib + Lapatinib; first compound 2.53 µM)	relative viability (Ruxolitinib + Lapatinib; first compound 8 µM)	relative viability (Ruxolitinib + Luminespib; first compound 0.253 µM)	relative viability (Ruxolitinib + Luminespib; first compound 0.8 µM)	relative viability (Ruxolitinib + Luminespib; first compound 2.53 µM)	relative viability (Ruxolitinib + Luminespib; first compound 8 µM)	relative viability (Ruxolitinib + Luminespib; first compound 0.08 µM)
HCC-78	0.703	0.759	0.638	0.707	0.78	0.422	0.481	0.431	0.507	0.492	0.37	0.294	0.441	0.553	0.199					
HCC-366	0.991	0.98	0.974	1.1	1.09	0.417	0.441	0.389	0.365	0.19	1.11	0.982	1.1	0.937	0.747					
HCC-827	1.03	1.04	0.961	1.03	1.02		0.275	0.408	0.366	0.411		0.196	0.172	0.212	0.225	0.578	0.679	0.519	0.562	
HOP-62	0.985	1.06	0.915	0.819	1.07	0.454	0.451	0.45	0.435	0.411		1.07	1.16	0.91	0.914	0.946	0.934	0.927	0.686	0.879
IA-LM	0.912	0.725	0.908	0.82	0.868						0.903	0.657	1.04	1.01	0.477					
LC-2-ad	0.573	0.447	0.422	0.522	0.553	0.544	0.511	0.533	0.473	0.409	0.989	0.878	0.868	0.773	0.34	1	1	0.693	0.688	
LCLC-97TM1			0.443		0.63	0.235	0.185	0.213	0.192	0.213	0.877	0.833	0.852	0.83	1.21	0.657	0.78	0.626	0.904	0.617
LCLC-103H						0.495	0.467	0.468	0.426	0.394						0.862	0.959	1.04	0.956	0.851
LK-2	0.818	0.734	0.797	0.859	0.784	0.863	0.696	0.787	0.701	0.686		0.893	1.23	0.997	0.964	0.157	0.187	0.203	0.168	0.184
LOU-NH91	0.618	0.686	0.687	0.672	0.747	0.61	0.526	0.52	0.532	0.53	0.786	0.666	0.844	0.764	0.865	0.361	0.35	0.316	0.382	
LU99A	0.722	0.794	0.79	0.881	0.71	0.443	0.387	0.411	0.369	0.332	1.11	0.954	1.13	0.754	0.675	0.265	0.353	0.23	0.23	0.224
NCI-H358						0.167	0.125	0.16	0.14	0.127	0.421	0.434	0.445	0.36	0.35	0.238	0.312	0.362	0.168	0.309
NCI-H441	0.808	0.734	0.722	0.554	0.689	0.218	0.206	0.302	0.241	0.309						0.424	0.319	0.472	0.317	0.299
NCI-H522						1.12	1.09	1.16	0.869	0.933						1.81	1.25	0.884	1.64	1.14
NCI-H596	0.95	1.01	0.848	0.882	0.904						1.18	1.07	1.22	1.03	1.07	0.889	1.4	1.17	1	1.03
NCI-H650						0.325	0.339	0.347	0.317	0.321		0.925	1.05	0.842	0.667	0.844	0.843	0.804	0.658	
NCI-H661						0.425	0.436	0.427	0.417	0.381	0.518	0.564	0.614	0.452	0.606	1.01	0.93	0.94	0.768	0.892
NCI-H1299	1.03	1	1.09	0.935	1.01						0.937	0.963	0.957	0.915	0.718					
NCI-H1563											1.07	0.85	0.979	0.903	0.774	0.515	0.549	0.505	0.505	0.535
NCI-H1623																0.431	0.705	0.526	0.765	0.423
NCI-H1648						0.294	0.302	0.344	0.345	0.371										
NCI-H1703	1.02	1.05	0.986	1.23	1.47						0.999	1.01	1.12	0.738	0.64					
NCI-H2342						0.53	0.496	0.49	0.543	0.541						0.79	0.863	0.788	0.728	0.748
SW 900						0.477	0.589	0.625	0.624	0.532						0.181	0.181	0.154	0.193	0.175
